Assay results published in article PMC9057082 (RSC Advances, 2020).

Assay: Total antioxidant capacity
Assay type: biochemical
Conditions: residual hydrogen peroxide measured at 505 nm; mean ± standard deviation

## O=C1O[C@H]([C@@H](O)CO)C(O)=C1O [Ascorbic acid]
  Total anti-oxidant activity IC50: 174.8 ± 12.3 mg/L
